Tested on: tyrosine kinase activity in lysates prepared from cell lines
Experiment: PAMCHIP96 tyrosine peptide array profiling of lysates of 27 cell lines in absence or presence of MTKI
Type: biochemical
Conditions: 5 μM
Description: PAMGENE technology using the tyrosine peptide PAMCHIP96 allows the kinetic detection of the phosphorylation of 144 tyrosine peptides spotted onto a 3-dimensional porous well of a 96-well plate (www.pamgene.com). This technology can be used to measure the activity of purified kinases and the effects of kinase inhibitors thereon. Phosphotyrosine peptides are detected using a mix of fluorescently labeled anti-phosphotyrosine antibodies. Phosphorylation of peptides can be followed in real time due to the possibility of removing the reaction mix for a few seconds during the assay by a pumping mechanism to allow CCD camera detection of phosphopeptides bound to the fluorescent antibody. These consecutive datapoints (quantified spot images) generate a kinetic curve for each individual peptide, and allow for the calculation of initial velocities and endpoints associated with each individual peptide.
Cells cultured in appropriate medium in T175 flasks, treated with compound if necessary, are harvested at 70-90% confluency.
Media is removed, cells are washed with 10 ml ice cold PBS containing 0.1 mM NaVO4 and lysed in 1 ml of M-PER buffer (PIERCE) containing phosphatase and protease inhibitors (HALT, PIERCE). Cells are collected by scraping, and centrifuged for 10 minutes at 12 000×g. Supernatant lysates are filtered through a 0.2 micrometer filter (Anotop 0.2 μm anopore filter; Whatmann). Lysates are flash frozen in liquid nitrogen and stored at −80C.
Just prior to the PAMCHIP experiment, total protein content is quantitated in the lysates and lysates are diluted to 1 mg/ml in a total volume of 200 μl, with M-PER phosphatase and protease inhibitors (HALT, PIERCE). 10 μg of total lysate (corresponding to 10 μl) will be used per well on the PAMCHIP96.
To all 200 μl lysates 10 units of benzonase (Novagen) is added and lysates are further incubated for 30 min on ice and next centrifuged for 10 minutes at 12 000×g. The supernatant is then 1:1 diluted with compound or DMSO diluted to the appropriate concentration in water, and lysates are further incubated exactly 60 min on ice. Meanwhile, a PAMCHIP96 tyrosine peptide chip (PAMGENE) is blocked with 2% BSA (filtered through a 0.2 μm anopore filter; Whatmann) using the standard setting of a PAMSTATION96 (PAMGENE).
The composition of the kinase buffer is as follows: 1×ABL buffer (NEB), 0.5 mg/ml BSA (from 10 mg/ml NEB stock), 100 μM ATP (dissolved and diluted in 1×ABL buffer), 5 μg/ml PY20-FITC (ExAlpha Biologicals, azide-free preparation). A twofold concentrated kinase buffer is prepared chilled on ice, DMSO or compound is added as appropriate, and the solution is added 1:1 to the (compound treated) ice cold lysates, and immediately applied to a tyrosine peptide PAMCHIP96. The assay is run on a PAMSTATION96 according to standard procedures: after loading of the plate, solution is pumped once onto the wells, a first exposure is read (150 mSec) and then a kinetic reading program (reading every 5 min for 150 mSec) is run for 60 min. Lysates are run in 6 technical replicates for each condition; replicates are always applied horizontally next to each other to avoid vertical strip effects of the chip.
The data (spot images) are further quantified and linked to the peptide identities using EVOLVE PAMGRID software (PAMGENE). The quantified data are then fit to a curve using CurveFitHT software (PAMGENE) using the Vinip2 curve fitting algorithm, applied on the first 30 min of the assay; the initial velocity is derived at the first kinetic time point read. All subsequent data analyses were done on initial velocities (Vini) using the software packages Omniviz and R (Ihaka, R. and Gentlemen, R. (1996) R: a language for data analysis and graphics. J. Comput. Graph. Stat., 5, 299-314).
After replacing the Vini's lower than 0.1 by 0.1, all Vini's were log 2-transformed to approach normality.

## COc1cc2ncnc3c2cc1OCCCCCN(C)Cc1ccc(Br)cc1N3 [MTKI, 4,6-ethanediylidenepyrimido[4,5-b][6,1,12]benzoxadiazacyclopentadecine, 17-bromo-8,9,10,11,12,13,14,19-octahydro-20-methoxy-13-methyl-]
A431 lysate, CDK7_157_169_S164
  ratio of initial velocity of peptide phosphorylation: 0.53
A431 lysate, CREB1_122_134_Y134/S133
  ratio of initial velocity of peptide phosphorylation: 0.63
A431 lysate, DDR2_733_745_Y740
  ratio of initial velocity of peptide phosphorylation: 0.56
A431 lysate, MK10_216_228_T221/Y223
  ratio of initial velocity of peptide phosphorylation: 0.46
A431 lysate, NCF1_313_325_S315/S320
  ratio of initial velocity of peptide phosphorylation: 0.57
A431 lysate, NPT2_501_513_T508
  ratio of initial velocity of peptide phosphorylation: 0.53
A431 lysate, PECA1_706_718_Y713
  ratio of initial velocity of peptide phosphorylation: 0.72
A431 lysate, PGFRB_768_780_Y771/Y775/Y778
  ratio of initial velocity of peptide phosphorylation: 0.97
A431 lysate, PLCG1_764_776_Y771
  ratio of initial velocity of peptide phosphorylation: 0.82
A431 lysate, PRRX2_202_214_Y214
  ratio of initial velocity of peptide phosphorylation: 0.75
A431 lysate, RASA1_453_465_Y460
  ratio of initial velocity of peptide phosphorylation: 0.62
A431 lysate, STAT2_683_695_Y690
  ratio of initial velocity of peptide phosphorylation: 0.57
A431 lysate, SYN1_2_14_S9
  ratio of initial velocity of peptide phosphorylation: 0.58
A431 lysate, TYRO3_679_691_Y686
  ratio of initial velocity of peptide phosphorylation: 0.52
H322 lysate, CDK7_157_169_S164
  ratio of initial velocity of peptide phosphorylation: 0.88
H322 lysate, CREB1_122_134_Y134/S133
  ratio of initial velocity of peptide phosphorylation: 0.94
H322 lysate, DDR2_733_745_Y740
  ratio of initial velocity of peptide phosphorylation: 0.85
H322 lysate, ENOG_37_49_Y43
  ratio of initial velocity of peptide phosphorylation: 0.76
H322 lysate, MK10_216_228_T221/Y223
  ratio of initial velocity of peptide phosphorylation: 0.76
H322 lysate, NCF1_313_325_S315/S320
  ratio of initial velocity of peptide phosphorylation: 0.88
H322 lysate, NPT2_501_513_T508
  ratio of initial velocity of peptide phosphorylation: 0.88
H322 lysate, PECA1_706_718_Y713
  ratio of initial velocity of peptide phosphorylation: 0.73
H322 lysate, PGFRB_768_780_Y771/Y775/Y778
  ratio of initial velocity of peptide phosphorylation: 0.92
H322 lysate, PLCG1_764_776_Y771
  ratio of initial velocity of peptide phosphorylation: 0.79
H322 lysate, PRRX2_202_214_Y214
  ratio of initial velocity of peptide phosphorylation: 0.85
H322 lysate, RASA1_453_465_Y460
  ratio of initial velocity of peptide phosphorylation: 0.83
H322 lysate, STAT2_683_695_Y690
  ratio of initial velocity of peptide phosphorylation: 0.89
H322 lysate, SYN1_2_14_S9
  ratio of initial velocity of peptide phosphorylation: 0.91
H322 lysate, TYRO3_679_691_Y686
  ratio of initial velocity of peptide phosphorylation: 0.96
H2122 lysate, CDK7_157_169_S164
  ratio of initial velocity of peptide phosphorylation: 0.90
H2122 lysate, CREB1_122_134_Y134/S133
  ratio of initial velocity of peptide phosphorylation: 0.85
H2122 lysate, DDR2_733_745_Y740
  ratio of initial velocity of peptide phosphorylation: 0.81
H2122 lysate, ENOG_37_49_Y43
  ratio of initial velocity of peptide phosphorylation: 0.71
H2122 lysate, MK10_216_228_T221/Y223
  ratio of initial velocity of peptide phosphorylation: 0.79
H2122 lysate, NCF1_313_325_S315/S320
  ratio of initial velocity of peptide phosphorylation: 0.94
H2122 lysate, NPT2_501_513_T508
  ratio of initial velocity of peptide phosphorylation: 0.90
H2122 lysate, PECA1_706_718_Y713
  ratio of initial velocity of peptide phosphorylation: 0.67
H2122 lysate, PLCG1_764_776_Y771
  ratio of initial velocity of peptide phosphorylation: 0.76
H2122 lysate, PRRX2_202_214_Y214
  ratio of initial velocity of peptide phosphorylation: 0.84
H2122 lysate, RASA1_453_465_Y460
  ratio of initial velocity of peptide phosphorylation: 0.78
H2122 lysate, STAT2_683_695_Y690
  ratio of initial velocity of peptide phosphorylation: 0.90
H2122 lysate, SYN1_2_14_S9
  ratio of initial velocity of peptide phosphorylation: 0.91
H2122 lysate, TYRO3_679_691_Y686
  ratio of initial velocity of peptide phosphorylation: 0.95
H3255 lysate, CDK7_157_169_S164
  ratio of initial velocity of peptide phosphorylation: 0.55
H3255 lysate, CREB1_122_134_Y134/S133
  ratio of initial velocity of peptide phosphorylation: 0.73
H3255 lysate, DDR2_733_745_Y740
  ratio of initial velocity of peptide phosphorylation: 0.44
H3255 lysate, ENOG_37_49_Y43
  ratio of initial velocity of peptide phosphorylation: 0.76
H3255 lysate, MK10_216_228_T221/Y223
  ratio of initial velocity of peptide phosphorylation: 0.47
H3255 lysate, NCF1_313_325_S315/S320
  ratio of initial velocity of peptide phosphorylation: 0.59
H3255 lysate, NPT2_501_513_T508
  ratio of initial velocity of peptide phosphorylation: 0.68

— patent US20100234238A1, “METHOD FOR PROFILING KINASE INHIBITORS” (Janssen Pharmaceutica N V, priority 2006, published 2010)
